Biological target: T1, Siglec-2 (CD22) (Homo sapiens, UniProt P20273)
T1 sequence (P20273 20-847): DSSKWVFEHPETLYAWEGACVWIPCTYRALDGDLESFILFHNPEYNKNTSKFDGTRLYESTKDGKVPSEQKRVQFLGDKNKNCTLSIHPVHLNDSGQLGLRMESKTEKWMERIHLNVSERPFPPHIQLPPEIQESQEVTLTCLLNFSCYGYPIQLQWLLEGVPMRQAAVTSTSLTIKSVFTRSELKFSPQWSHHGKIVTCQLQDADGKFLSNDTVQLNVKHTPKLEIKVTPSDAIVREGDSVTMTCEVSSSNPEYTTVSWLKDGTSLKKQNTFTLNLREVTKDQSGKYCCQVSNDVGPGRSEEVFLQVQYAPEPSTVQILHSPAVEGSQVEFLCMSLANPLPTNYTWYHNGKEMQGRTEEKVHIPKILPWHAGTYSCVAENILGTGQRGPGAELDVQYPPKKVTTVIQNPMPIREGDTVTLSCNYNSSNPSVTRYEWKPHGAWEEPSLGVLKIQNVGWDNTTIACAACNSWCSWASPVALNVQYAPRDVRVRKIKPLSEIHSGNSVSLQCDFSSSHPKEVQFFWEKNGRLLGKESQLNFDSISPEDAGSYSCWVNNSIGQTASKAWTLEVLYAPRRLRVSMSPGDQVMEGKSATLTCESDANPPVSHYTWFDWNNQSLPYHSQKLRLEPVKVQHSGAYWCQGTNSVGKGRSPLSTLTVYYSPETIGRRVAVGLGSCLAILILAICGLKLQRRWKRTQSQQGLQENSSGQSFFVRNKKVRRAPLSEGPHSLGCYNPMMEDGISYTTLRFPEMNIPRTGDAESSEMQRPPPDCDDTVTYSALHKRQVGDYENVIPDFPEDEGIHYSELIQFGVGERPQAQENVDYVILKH
Test: new affinity assay: displacement of biotinylated compound 155 from sialidase-treated Daudi cells, FACS with streptavidin-PE
Assay type: binding
Design: endogenous in cells; host or cells: Daudi (human B-cell lymphoma line)
Settings: Table II; rIP values set relative to compound 38; Daudi cells, displacement of compound 155
Protocol: To determine the affinity of the compound of the formula (I), approximately 5×10^6 to 2×10^8 cells of the human B-cell lymphoma line “Daudi” were incubated with sialidase (A. ureafaciens) at 37° C. for 1 h (final concentration 0.1 unit/ml). […] Batches of 1-2×10^6 cells were transferred to sample vessels, and incubated on ice for 15 min with serial concentrations (10-fold dilutions, 1 mM to 1×10^−7 mM) of the substance under measurement (inhibitor). The reaction volume was 50 μl. Then 50 microliters of compound 155 (4-micromolar) were added, and incubation took place for 20 min Washing with FACS buffer (PBS, 0.1 BSA, 0.01% sodium azide) was followed by incubation with streptavidin-PE in the dark for 15 min, followed by washing and measurement of the bound amount of […] via the streptavidin-PE in the FACS. For the determination of 0% displacement of the compound 155, cells without inhibitor were measured. For the determination of 100% displacement, cells were measured without compound 155 and without inhibitor. For each assay, four substances and one reference were measured. The IC50 values determined in each assay were subsequently converted into values of rIP (relative Inhibitory Potency). […]

Row | Structure (SMILES) | rIP
1 | CC(=O)N[C@H]1[C@H]([C@H](O)[C@H](O)CNC(=O)c2ccc(-c3ccccc3)cc2)O[C@@](OCCCSCCNC(=O)Nc2ccc(NC(=O)NCCSCCCO[C@]3(C(=O)[O-])C[C@H](O)[C@@H](NC(C)=O)[C@H]([C@H](O)[C@H](O)CNC(=O)c4ccc(-c5ccccc5)cc4)O3)cc2)(C(=O)[O-])C[C@@H]1O.[Na+].[Na+] [Compound 49] | 626
2 | CC(=O)N[C@H]1[C@H]([C@H](O)[C@H](O)CNC(=O)c2ccc(-c3ccccc3)cc2)O[C@@](OCCCSCCNc2c(NCCSCCCO[C@]3(C(=O)[O-])C[C@H](O)[C@@H](NC(C)=O)[C@H]([C@H](O)[C@H](O)CNC(=O)c4ccc(-c5ccccc5)cc4)O3)c(=O)c2=O)(C(=O)[O-])C[C@@H]1O.[Na+].[Na+] [Compound 51] | 299
3 | CC(=O)N[C@H]1[C@H]([C@H](O)[C@H](O)CNC(=O)c2ccc(-c3ccccc3)cc2)O[C@@](OCCCSCCNCc2ccc(CNCCSCCCO[C@]3(C(=O)[O-])C[C@H](O)[C@@H](NC(C)=O)[C@H]([C@H](O)[C@H](O)CNC(=O)c4ccc(-c5ccccc5)cc4)O3)cc2)(C(=O)[O-])C[C@@H]1O.[Na+].[Na+] [Compound 52] | 31
4 | CC(=O)N[C@H]1[C@H]([C@H](O)[C@H](O)CNC(=O)c2ccc(-c3ccccc3)cc2)O[C@@](OCCCSCCNC(=O)c2ccc(NC(=O)CCSCCCO[C@]3(C(=O)[O-])C[C@H](O)[C@@H](NC(C)=O)[C@H]([C@H](O)[C@H](O)CNC(=O)c4ccc(-c5ccccc5)cc4)O3)cc2)(C(=O)[O-])C[C@@H]1O.[Na+].[Na+] [Compound 54] | 7092
5 | CC(=O)N[C@H]1[C@H]([C@H](O)[C@H](O)CNC(=O)c2ccc(C3CCCCC3)cc2)O[C@@](OCCCSCCNC(=O)c2ccc(C(=O)NCCSCCCO[C@]3(C(=O)[O-])C[C@H](O)[C@@H](NC(C)=O)[C@H]([C@H](O)[C@H](O)CNC(=O)c4ccc(C5CCCCC5)cc4)O3)cc2)(C(=O)[O-])C[C@@H]1O.[Na+].[Na+] [Compound 57] | 22
6 | CC(=O)N[C@H]1[C@H]([C@H](O)[C@H](O)CNC(=O)c2ccc(C3CCCCC3)cc2)O[C@@](OCCCSCCNC(=O)CCCCC(=O)NCCSCCCO[C@]2(C(=O)[O-])C[C@H](O)[C@@H](NC(C)=O)[C@H]([C@H](O)[C@H](O)CNC(=O)c3ccc(C4CCCCC4)cc3)O2)(C(=O)[O-])C[C@@H]1O.[Na+].[Na+] [Compound 58] | 24
7 | CC(=O)N[C@H]1[C@H]([C@H](O)[C@H](O)CNC(=O)c2ccc(-c3cccs3)s2)O[C@@](OCCCSCCNC(=O)c2ccc(C(=O)NCCSCCCO[C@]3(C(=O)[O-])C[C@H](O)[C@@H](NC(C)=O)[C@H]([C@H](O)[C@H](O)CNC(=O)c4ccc(-c5cccs5)s4)O3)cc2)(C(=O)[O-])C[C@@H]1O.[Na+].[Na+] [Compound 62] | 203
8 | CC(=O)N[C@H]1[C@H]([C@H](O)[C@H](O)CNC(=O)c2ccc(Oc3ccccc3)cc2)O[C@@](OCCCSCCNC(=O)c2ccc(C(=O)NCCSCCCO[C@]3(C(=O)[O-])C[C@H](O)[C@@H](NC(C)=O)[C@H]([C@H](O)[C@H](O)CNC(=O)c4ccc(Oc5ccccc5)cc4)O3)cc2)(C(=O)[O-])C[C@@H]1O.[Na+].[Na+] [Compound 63] | 20
9 | CC(=O)N[C@H]1[C@H]([C@H](O)[C@H](O)CNC(=O)c2ccc(-c3ccccc3)s2)O[C@@](OCCCSCCNC(=O)c2ccc(C(=O)NCCSCCCO[C@]3(C(=O)[O-])C[C@H](O)[C@@H](NC(C)=O)[C@H]([C@H](O)[C@H](O)CNC(=O)c4ccc(-c5ccccc5)s4)O3)cc2)(C(=O)[O-])C[C@@H]1O.[Na+].[Na+] [Compound 65] | 106
10 | CC(=O)N[C@H]1[C@H]([C@H](O)[C@H](O)CNC(=O)Cc2ccc3ccccc3c2)O[C@@](OCCCSCCNC(=O)c2ccc(C(=O)NCCSCCCO[C@]3(C(=O)[O-])C[C@H](O)[C@@H](NC(C)=O)[C@H]([C@H](O)[C@H](O)CNC(=O)Cc4ccc5ccccc5c4)O3)cc2)(C(=O)[O-])C[C@@H]1O.[Na+].[Na+] [Compound 66] | 197
11 | CC(=O)N[C@H]1[C@H]([C@H](O)[C@H](O)CNC(=O)c2ccc(-c3ccc(O)cc3)cc2)O[C@@](OCCCSCCNC(=O)c2ccc(C(=O)NCCSCCCO[C@]3(C(=O)[O-])C[C@H](O)[C@@H](NC(C)=O)[C@H]([C@H](O)[C@H](O)CNC(=O)c4ccc(-c5ccc(O)cc5)cc4)O3)cc2)(C(=O)[O-])C[C@@H]1O.[Na+].[Na+] [Compound 67] | 1959
12 | CC(=O)N[C@H]1[C@H]([C@H](O)[C@H](O)CNC(=O)c2ccc(-c3ccc(C(=O)[O-])cc3)cc2)O[C@@](OCCCSCCNC(=O)c2ccc(C(=O)NCCSCCCO[C@]3(C(=O)[O-])C[C@H](O)[C@@H](NC(C)=O)[C@H]([C@H](O)[C@H](O)CNC(=O)c4ccc(-c5ccc(C(=O)[O-])cc5)cc4)O3)cc2)(C(=O)[O-])C[C@@H]1O.[Na+].[Na+].[Na+].[Na+] [Compound 68] | 5
13 | CC(=O)N[C@H]1[C@H]([C@H](O)[C@H](O)CNC(=O)c2ccc(-c3ccc([N+](=O)[O-])cc3[N+](=O)[O-])c([N+](=O)[O-])c2)O[C@@](OCCCSCCNC(=O)c2ccc(C(=O)NCCSCCCO[C@]3(C(=O)[O-])C[C@H](O)[C@@H](NC(C)=O)[C@H]([C@H](O)[C@H](O)CNC(=O)c4ccc(-c5ccc([N+](=O)[O-])cc5[N+](=O)[O-])c([N+](=O)[O-])c4)O3)cc2)(C(=O)[O-])C[C@@H]1O.[Na+].[Na+] [Compound 69] | 14
14 | CC(=O)N[C@H]1[C@H]([C@H](O)[C@H](O)CNC(=O)c2cc3ccccc3s2)O[C@@](OCCCSCCNC(=O)c2ccc(C(=O)NCCSCCCO[C@]3(C(=O)[O-])C[C@H](O)[C@@H](NC(C)=O)[C@H]([C@H](O)[C@H](O)CNC(=O)c4cc5ccccc5s4)O3)cc2)(C(=O)[O-])C[C@@H]1O.[Na+].[Na+] [Compound 70] | 137
15 | CC(=O)N[C@H]1[C@H]([C@H](O)[C@H](O)CNC(=O)c2ccc(C(F)(F)F)cc2)O[C@@](OCCCSCCNC(=O)c2ccc(C(=O)NCCSCCCO[C@]3(C(=O)[O-])C[C@H](O)[C@@H](NC(C)=O)[C@H]([C@H](O)[C@H](O)CNC(=O)c4ccc(C(F)(F)F)cc4)O3)cc2)(C(=O)[O-])C[C@@H]1O.[Na+].[Na+] [Compound 71] | 32
16 | CC(=O)N[C@H]1[C@H]([C@H](O)[C@H](O)CNC(=O)c2ccc(Cl)cc2)O[C@@](OCCCSCCNC(=O)c2ccc(C(=O)NCCSCCCO[C@]3(C(=O)[O-])C[C@H](O)[C@@H](NC(C)=O)[C@H]([C@H](O)[C@H](O)CNC(=O)c4ccc(Cl)cc4)O3)cc2)(C(=O)[O-])C[C@@H]1O.[Na+].[Na+] [Compound 72] | 38
17 | CC(=O)Nc1ccc(C(=O)NC[C@@H](O)[C@@H](O)[C@@H]2O[C@@](OCCCSCCNC(=O)c3ccc(C(=O)NCCSCCCO[C@]4(C(=O)[O-])C[C@H](O)[C@@H](NC(C)=O)[C@H]([C@H](O)[C@H](O)CNC(=O)c5ccc(NC(C)=O)cc5)O4)cc3)(C(=O)[O-])C[C@H](O)[C@H]2NC(C)=O)cc1.[Na+].[Na+] [Compound 73] | 13
18 | COc1ccccc1-c1ccc(C(=O)NC[C@@H](O)[C@@H](O)[C@@H]2O[C@@](OCCCSCCNC(=O)c3ccc(C(=O)NCCSCCCO[C@]4(C(=O)[O-])C[C@H](O)[C@@H](NC(C)=O)[C@H]([C@H](O)[C@H](O)CNC(=O)c5ccc(-c6ccccc6OC)cc5)O4)cc3)(C(=O)[O-])C[C@H](O)[C@H]2NC(C)=O)cc1.[Na+].[Na+] [Compound 74] | 27
19 | CC(=O)N[C@H]1[C@H]([C@H](O)[C@H](O)CNC(=O)c2ccc(-c3ccccc3Cl)cc2)O[C@@](OCCCSCCNC(=O)c2ccc(C(=O)NCCSCCCO[C@]3(C(=O)[O-])C[C@H](O)[C@@H](NC(C)=O)[C@H]([C@H](O)[C@H](O)CNC(=O)c4ccc(-c5ccccc5Cl)cc4)O3)cc2)(C(=O)[O-])C[C@@H]1O.[Na+].[Na+] [Compound 75] | 3210
20 | CC(=O)N[C@H]1[C@H]([C@H](O)[C@H](O)CNC(=O)c2ccc(-c3ccc(C)cc3)cc2)O[C@@](OCCCSCCNC(=O)c2ccc(C(=O)NCCSCCCO[C@]3(C(=O)[O-])C[C@H](O)[C@@H](NC(C)=O)[C@H]([C@H](O)[C@H](O)CNC(=O)c4ccc(-c5ccc(C)cc5)cc4)O3)cc2)(C(=O)[O-])C[C@@H]1O.[Na+].[Na+] [Compound 76] | 188

— US9260467B2, “Sialic acid dimers” (priority 2011, dated 2016)
